Earlier results in patent US20220288273A1, “OSTEOINDUCTIVE MODIFIED GELATIN HYDROGELS AND METHODS OF MAKING AND USING THE SAME” (THE REGENTS OF THE UNIVERSITY OF CALIFORNIA, priority 2019, published 2022).

Structure (SMILES)	water solubility
CC(C)(O)C(=O)c1ccc(OCCO)cc1 [Irgacure-2959, 2-Hydroxy-4′-(2-hydroxyethoxy)-2-methylpropiophenone]	low water solubility
Cc1cc(C)c(C(=O)P(=O)([O-])c2ccccc2)c(C)c1.[Li+] [LAP, Lithium phenyl-2,4,6-trimethylbenzoylphosphinate]	high water solubility
